Read-outs that look alike come from different tables or passages of the source.
Key:
[1] = test system: Plasmodium berghei (Pb-Luc) exoerythrocytic-stage parasites; details: for IC50: read-out: PbLuc_IC50
HepG2-A16-CD81EGFP cells = details: for IC50: read-out: Tox_IC50, HepG2 cytotoxicity
[2] = first series of columns, fraction of control
[3] = sheet 2nd round, Pb-Luc exoerythrocytic stage, 10-point dose response, top concentration 10
[4] = second series of columns (replicate), fraction of control
[5] = sheet 2nd round, maximal inhibition in dose response
[6] = first series, fraction of control
[7] = second series, fraction of control
[8] = 2nd round, maximal inhibition in dose series

## C[C@H](CO)N1C[C@H](C)[C@H](CN(C)S(=O)(=O)c2ccc(F)cc2)OCCCC[C@H](C)Oc2ccc(N(C)C)cc2C1=O [BRD-K59130783-001-01-1]
[1]; [2]
  normalized signal at concentration 0.000508053: 0.8293
  normalized signal at concentration 0.00152416: 0.8148
  normalized signal at concentration 0.00457247: 0.8395
  normalized signal at concentration 0.0137174: 0.9506
  normalized signal at concentration 0.0411523: 0.8723
  normalized signal at concentration 0.123457: 1.0641
  normalized signal at concentration 0.37037: 0.9674
  normalized signal at concentration 1.11111: 0.9129
  normalized signal at concentration 3.33333: 0.9251
  normalized signal at concentration 10: 0.7483
[1]; [3]
  IC50: > 10 µM
[1]; [4]
  normalized signal at concentration 0.000508053: 1.007
  normalized signal at concentration 0.00152416: 0.9488
  normalized signal at concentration 0.00457247: 0.9241
  normalized signal at concentration 0.0137174: 0.9817
  normalized signal at concentration 0.0411523: 0.8684
  normalized signal at concentration 0.123457: 0.9044
  normalized signal at concentration 0.37037: 1.051
  normalized signal at concentration 1.11111: 0.8044
  normalized signal at concentration 3.33333: 0.946
  normalized signal at concentration 10: 0.5139
[1]; [5]
  PbLuc_max_inhibition (%): 49%
HepG2-A16-CD81EGFP cells; sheet 2nd round
  IC50: > 10 µM
HepG2-A16-CD81EGFP cells; [5]
  Tox_max_inhibition (%): 7%

## O=C(O)C[C@H]1CC[C@@H]2[C@H](COC[C@@H](O)CN2S(=O)(=O)c2ccc(Oc3ccccc3)cc2)O1 [BRD-K61788733-001-01-3]
[1]; [2]
  normalized signal at concentration 0.000508053: 0.8641
  normalized signal at concentration 0.00152416: 0.8788
  normalized signal at concentration 0.00457247: 0.8741
  normalized signal at concentration 0.0137174: 0.9455
  normalized signal at concentration 0.0411523: 0.9154
  normalized signal at concentration 0.123457: 0.9561
  normalized signal at concentration 0.37037: 0.927
  normalized signal at concentration 1.11111: 1.099
  normalized signal at concentration 3.33333: 1.256
  normalized signal at concentration 10: 1.046
[1]; [3]
  IC50: > 10 µM
[1]; [4]
  normalized signal at concentration 0.000508053: 1.03
  normalized signal at concentration 0.00152416: 0.992
  normalized signal at concentration 0.00457247: 0.8804
  normalized signal at concentration 0.0137174: 0.7616
  normalized signal at concentration 0.0411523: 1.066
  normalized signal at concentration 0.123457: 0.77
  normalized signal at concentration 0.37037: 0.8648
  normalized signal at concentration 1.11111: 0.993
  normalized signal at concentration 3.33333: 1.071
  normalized signal at concentration 10: 1.076
[1]; [5]
  PbLuc_max_inhibition (%): 24%
HepG2-A16-CD81EGFP cells; sheet 2nd round
  IC50: > 10 µM
HepG2-A16-CD81EGFP cells; [5]
  Tox_max_inhibition (%): 4.62%

## C/C=C/c1ccc([C@H]2[C@@H](CO)N(CC3CCCCC3)[C@H]2CNC(C)C)cc1 [BRD-K63968422-001-01-5]
[1]; first series of dose-response columns, fraction of control
  normalized signal at concentration 10: 0.94
[1]; [6]
  normalized signal at concentration 0.000508053: 1.00
  normalized signal at concentration 0.00152416: 1.12
  normalized signal at concentration 0.00457247: 0.90
  normalized signal at concentration 0.0137174: 1.14
  normalized signal at concentration 0.0411523: 1.01
  normalized signal at concentration 0.123457: 0.97
  normalized signal at concentration 0.37037: 0.96
  normalized signal at concentration 1.11111: 0.99
  normalized signal at concentration 3.33333: 1.01
[1]; sheet 2nd round, Broad compounds, dose response
  IC50: > 10 µM
[1]; second series of dose-response columns, fraction of control
  normalized signal at concentration 10: 0.85
[1]; [7]
  normalized signal at concentration 0.000508053: 0.78
  normalized signal at concentration 0.00152416: 1.01
  normalized signal at concentration 0.00457247: 1.16
  normalized signal at concentration 0.0137174: 1.05
  normalized signal at concentration 0.0411523: 1.10
  normalized signal at concentration 0.123457: 1.05
  normalized signal at concentration 0.37037: 1.24
  normalized signal at concentration 1.11111: 1.02
  normalized signal at concentration 3.33333: 1.10
[1]; [5]
  PbLuc_max_inhibition (%): 22%
HepG2-A16-CD81EGFP cells; sheet 2nd round
  IC50: > 10 µM
HepG2-A16-CD81EGFP cells; [5]
  Tox_max_inhibition (%): 9%

## C[C@@H]1CN([C@H](C)CO)C(=O)c2cccc(NC(=O)c3ccc(-c4nccs4)cc3)c2O[C@H]1CN(C)C(=O)Nc1ccc(C(F)(F)F)cc1 [BRD-K64517877-001-01-9]
[1]; [8]
  PbLuc_max_inhibition (%): 27%
[1]; concentration 0.000508053, first replicate series, fraction of control
  normalized signal at 0.000508053 (first series): 0.8077
[1]; concentration 0.000508053, second replicate series, fraction of control
  normalized signal at 0.000508053 (second series): 1.002
[1]; concentration 0.00152416, first replicate series, fraction of control
  normalized signal at 0.00152416 (first series): 0.8666
[1]; concentration 0.00152416, second replicate series, fraction of control
  normalized signal at 0.00152416 (second series): 0.9304
[1]; concentration 0.00457247, first replicate series, fraction of control
  normalized signal at 0.00457247 (first series): 0.8925
[1]; concentration 0.00457247, second replicate series, fraction of control
  normalized signal at 0.00457247 (second series): 0.7834
[1]; concentration 0.0137174, first replicate series, fraction of control
  normalized signal at 0.0137174 (first series): 1.197
[1]; concentration 0.0137174, second replicate series, fraction of control
  normalized signal at 0.0137174 (second series): 0.7634
[1]; concentration 0.0411523, first replicate series, fraction of control
  normalized signal at 0.0411523 (first series): 0.9517
[1]; concentration 0.0411523, second replicate series, fraction of control
  normalized signal at 0.0411523 (second series): 0.9123
[1]; concentration 0.123457, first replicate series, fraction of control
  normalized signal at 0.123457 (first series): 1.1239
[1]; concentration 0.123457, second replicate series, fraction of control
  normalized signal at 0.123457 (second series): 0.9202
[1]; concentration 0.37037, first replicate series, fraction of control
  normalized signal at 0.37037 (first series): 0.912
[1]; concentration 0.37037, second replicate series, fraction of control
  normalized signal at 0.37037 (second series): 0.776
[1]; concentration 1.11111, first replicate series, fraction of control
  normalized signal at 1.11111 (first series): 0.8174
[1]; concentration 1.11111, second replicate series, fraction of control
  normalized signal at 1.11111 (second series): 0.8082
[1]; concentration 3.33333, first replicate series, fraction of control
  normalized signal at 3.33333 (first series): 0.9935
[1]; concentration 3.33333, second replicate series, fraction of control
  normalized signal at 3.33333 (second series): 0.7269
[1]; concentration 10, first replicate series, fraction of control
  normalized signal at 10 (first series): 1.005
[1]; concentration 10, second replicate series, fraction of control
  normalized signal at 10 (second series): 0.7551
[1]; 2nd round, Broad DOS compounds, unit not printed (dose series head 10 to 0.000508053)
  IC50: > 10 µM
HepG2-A16-CD81EGFP cells; [8]
  Tox_max_inhibition (%): 9%
HepG2-A16-CD81EGFP cells; 2nd round, unit inferred
  IC50: > 10 µM

## CC(C)NC(=O)NCC[C@@H]1CC[C@H](NS(=O)(=O)c2ccc(Oc3ccccc3)cc2)[C@@H](CO)O1 [BRD-K66184091-001-01-6]
[1]; [2]
  normalized signal at concentration 0.000508053: 0.909
  normalized signal at concentration 0.00152416: 1.056
  normalized signal at concentration 0.00457247: 1.03
  normalized signal at concentration 0.0137174: 0.8503
  normalized signal at concentration 0.0411523: 0.8577
  normalized signal at concentration 0.123457: 0.9757
  normalized signal at concentration 0.37037: 0.9475
  normalized signal at concentration 1.11111: 1.003
  normalized signal at concentration 3.33333: 1.282
  normalized signal at concentration 10: 1.243
[1]; [3]
  IC50: > 10 µM
[1]; [4]
  normalized signal at concentration 0.000508053: 0.9487
  normalized signal at concentration 0.00152416: 0.9281
  normalized signal at concentration 0.00457247: 0.7932
  normalized signal at concentration 0.0137174: 0.7902
  normalized signal at concentration 0.0411523: 0.9772
  normalized signal at concentration 0.123457: 0.9341
  normalized signal at concentration 0.37037: 0.8543
  normalized signal at concentration 1.11111: 0.8244
  normalized signal at concentration 3.33333: 0.9837
  normalized signal at concentration 10: 0.9187
[1]; [5]
  PbLuc_max_inhibition (%): 21%
HepG2-A16-CD81EGFP cells; sheet 2nd round
  IC50: > 10 µM
HepG2-A16-CD81EGFP cells; [5]
  Tox_max_inhibition (%): 7%

## COc1cccc(S(=O)(=O)N2CCCCN3[C@H](CO)[C@H](c4ccc(C#CCC(C)C)cc4)[C@H]3C2)c1 [BRD-K69197522-001-01-4]
[1]; [2]
  normalized signal at concentration 0.000508053: 0.7703
  normalized signal at concentration 0.00152416: 0.9681
  normalized signal at concentration 0.00457247: 1.135
  normalized signal at concentration 0.0137174: 0.9046
  normalized signal at concentration 0.0411523: 0.9718
  normalized signal at concentration 0.123457: 0.7468
  normalized signal at concentration 0.37037: 1.034
  normalized signal at concentration 1.11111: 0.9136
  normalized signal at concentration 3.33333: 0.9728
  normalized signal at concentration 10: 0.6517
[1]; [3]
  IC50: > 10 µM
[1]; [4]
  normalized signal at concentration 0.000508053: 0.9237
  normalized signal at concentration 0.00152416: 0.8984
  normalized signal at concentration 0.00457247: 1.009
  normalized signal at concentration 0.0137174: 0.9117
  normalized signal at concentration 0.0411523: 0.9735
  normalized signal at concentration 0.123457: 1.068
  normalized signal at concentration 0.37037: 0.8113
  normalized signal at concentration 1.11111: 0.8704
  normalized signal at concentration 3.33333: 1.117
  normalized signal at concentration 10: 0.6736
[1]; [5]
  PbLuc_max_inhibition (%): 35%
HepG2-A16-CD81EGFP cells; sheet 2nd round
  IC50: > 10 µM
HepG2-A16-CD81EGFP cells; [5]
  Tox_max_inhibition (%): 6.65%
